Data taken from the NIST ThermoML archive (doi:10.1016/j.jct.2006.01.016).

What was measured:
[1] = 101 kPa, Liquid
[2] = xn = mol fraction of the nth substance listed; details: 101 kPa, Liquid

CCCCn1cc[n+](C)c1.F[B-](F)(F)F [1-butyl-3-methylimidazolium tetrafluoroborate]
[1]
Details	mass density [kg/m3]	speed of sound [m/s]
298.15 K	1201.42	1576
303.15 K	1197.88	1555.5
308.15 K	1194.35	1543.9
313.15 K	1190.82	1532.5
318.15 K	1187.29	1521.2

CC#N [acetonitrile]
[1]
Details	mass density [kg/m3]	speed of sound [m/s]
298.15 K	776.533	1278.6
303.15 K	771.116	1258.7
308.15 K	765.66	1238.7
313.15 K	760.162	1218.5
318.15 K	754.462	1198.3

CC#N [acetonitrile] + CCCCn1cc[n+](C)c1.F[B-](F)(F)F
[2], x2 = 0
Details	mass density [kg/m3]	speed of sound [m/s]
298.15 K	776.533	1278.6
303.15 K	771.116	1258.7
308.15 K	765.66	1238.7
313.15 K	760.162	1218.5
318.15 K	754.462	1198.3

CCCCn1cc[n+](C)c1.F[B-](F)(F)F [1-butyl-3-methylimidazolium tetrafluoroborate] + CO
[2]
Details	mass density, 298.15 K [kg/m3]	mass density, 303.15 K [kg/m3]	mass density, 308.15 K [kg/m3]	mass density, 313.15 K [kg/m3]	mass density, 318.15 K [kg/m3]	speed of sound, 298.15 K [m/s]	speed of sound, 303.15 K [m/s]	speed of sound, 308.15 K [m/s]	speed of sound, 313.15 K [m/s]	speed of sound, 318.15 K [m/s]
x1 = 0.0086	805.151	800.482	795.796	791.081	786.347	–	1105.3	1089.3	1073.5	1057.8
x1 = 0.0473	871.093	866.582	862.063	857.529	852.979	–	1162.4	1147.8	1133.1	1118.6
x1 = 0.0989	935.734	931.386	927.032	922.668	918.304	–	1224.6	1211	1197.5	1184
x1 = 0.2027	1020.75	1016.6	1012.46	1008.33	1004.19	–	1321.8	1309.2	1296.5	1284
x1 = 0.3516	1090.69	1086.81	1082.62	1079.1	1075.21	1423.6	1411.3	1399.1	–	1375
x1 = 0.4958	1131.97	1128.15	1124.35	1120.99	1117.11	1477	1465	1453.1	1441.8	1430.1
x1 = 0.6961	1168.33	1164.63	1160.96	1157.3	1153.66	1524.1	1512.2	1500.4	1488.8	1477.2
x1 = 0.7982	1181.54	1177.91	1174.28	1170.67	1167.07	1541.2	1529.5	1517.9	1506.3	1494.8
x1 = 1	1201.42	1197.88	1194.35	1190.82	1187.29	1576	1555.5	1543.9	1532.5	1521.2

CO [methanol] + CCCCn1cc[n+](C)c1.F[B-](F)(F)F
[2], x2 = 0
Details	mass density [kg/m3]	speed of sound [m/s]
298.15 K	786.531	–
303.15 K	781.808	1086.4
308.15 K	777.066	1070.1
313.15 K	772.283	1054
318.15 K	767.474	1037.9

CO [methanol]
[1]
Details	mass density [kg/m3]	speed of sound [m/s]
298.15 K	786.531	–
303.15 K	781.808	1086.4
308.15 K	777.066	1070.1
313.15 K	772.283	1054
318.15 K	767.474	1037.9

CCCCn1cc[n+](C)c1.F[B-](F)(F)F [1-butyl-3-methylimidazolium tetrafluoroborate] + CC#N
[2]
Details	mass density, 298.15 K [kg/m3]	mass density, 303.15 K [kg/m3]	mass density, 308.15 K [kg/m3]	mass density, 313.15 K [kg/m3]	mass density, 318.15 K [kg/m3]	speed of sound, 298.15 K [m/s]	speed of sound, 303.15 K [m/s]	speed of sound, 308.15 K [m/s]	speed of sound, 313.15 K [m/s]	speed of sound, 318.15 K [m/s]
x1 = 0.0103	794.416	789.093	783.745	778.368	772.971	1289.2	1269.3	1249.6	1230	1210.3
x1 = 0.0442	845.059	839.982	834.883	829.765	824.63	1315.7	1297	1278.2	1259.5	1240.8
x1 = 0.1032	913.689	908.908	904.123	899.327	894.531	1354.8	1337.2	1319.7	1302.3	1284.9
x1 = 0.2015	994.016	989.579	985.147	980.715	976.287	1407.7	1391.8	1375.8	1359.6	1344.1
x1 = 0.2931	1045.58	1041.36	1037.15	1032.94	1028.74	1445.2	1430.2	1415.2	1400.5	1385.8
x1 = 0.3935	1086.98	1082.93	1078.89	1074.86	1070.84	1476.8	1462.7	1448.6	1434.6	1420.8
x1 = 0.5352	1128.52	1124.64	1120.78	1116.92	1113.08	1509.2	1495.9	1482.6	1469.7	1456.9
x1 = 0.7043	1162.31	1158.57	1154.85	1151.13	1147.43	1535.9	–	1511.1	1498.8	1486.6
x1 = 1	1201.42	1197.88	1194.35	1190.82	1187.29	1576	1555.5	1543.9	1532.5	1521.2
